This passage reports Viscosity and P.I.I. results from patent US20080200635A1, “POLYSILANE COMPOUND AND SYNTHESIS METHOD, ULTRAVIOLET-RAY CURABLE INK COMPOSITION, INKJET RECORDING METHOD AND APPARATUS, AND INK CONTAINER” (SEIKO EPSON CORPORATION, priority 2007, published 2008).

A short description of series [1]: Viscosity of monomers at 25° C. The format is physicochemical. Conditions: measured value at 25° C. As to the method:
The viscosities in the foregoing table are a measured value at 25° C.

The conditions of series [2]: primary irritation index; cited from earlier work.

Regarding `C=C(C)C(=O)OCCCCOC(=O)C(=C)C` [1,4-Butanediol dimethacrylate], the Viscosity in series [1] is given as 7 mPa · s. The P.I.I. in series [2] is given as 2.0.

As for `C=C(C)C(=O)OCCCCCCOC(=O)C(=C)C` [1,6-Hexanediol dimethacrylate], the Viscosity in series [1] amounted to 6 mPa · s. Also, in series [2], the P.I.I. is 0.5.

Take `C=CC(=O)OCCCCCCCCCOC(=O)C=C` [1,9-Nonanediol diacrylate]: the Viscosity in series [1] stood at 21 mPa · s. Further, in series [2], the P.I.I. is 2.0.

As for `C=C(C)C(=O)OCC(O)COC(=O)C(=C)C` [2-Hydroxy-1,3-dimethacryloxypropane], the Viscosity in series [1] is recorded as 37 mPa · s. For the same compound, in series [2], the P.I.I. is 0.6.

In the case of `C=C(C)C(=O)OCC1COC(C)(CC)O1` (centres unmarked) [(2-Methyl-2-ethyl-1,3-dioxolan-4-yl)methyl methacrylate], the Viscosity in series [1] was determined as 5.1 mPa · s. For the same compound, the P.I.I. in series [2] is on record as 1.3.

With `C=CC(=O)OCC1COC(C)(CC(C)C)O1` (centres unmarked) [(2-Methyl-2-isobutyl-1,3-dioxolan-4-yl)methyl acrylate], the Viscosity in series [1] came to 5.3 mPa · s. For the same compound, the P.I.I. in series [2] is recorded as 1.0.

Turning to `C=CC(=O)N1CCOCC1` [Acryloyl morpholine], the Viscosity in series [1] turned out to be 12 mPa · s.

With `C=C(C)C(=O)OCCOCCOC(=O)C(=C)C` [Diethylene glycol dimethacrylate], the Viscosity in series [1] is given as 5 mPa · s. Also, the P.I.I. in series [2] is on record as 0.5.

Take `C=C(C)C(=O)OCCOC(=O)C(=C)C` [Ethylene glycol dimethacrylate]: the Viscosity in series [1] came to 3 mPa · s. For the same compound, the P.I.I. in series [2] is reported as 0.6.

Compound `C=CC(=O)O[C@@H]1C[C@H]2CC[C@]1(C)C2(C)C` [Isobonyl acrylate] showed a Viscosity in series [1] of 2.6 mPa · s. In addition, the P.I.I. in series [2] was 0.6.

In series [1], `C=CC(=O)OCCOCCOC` [Methoxy diethylene glycol monoacrylate] gave a Viscosity of 2 mPa · s. In addition, the P.I.I. in series [2] is recorded as 0.7.

Take `C=C(C)C(=O)OCC(C)(C)COC(=O)C(=C)C` [Neopentyl glycol dimethacrylate]: the Viscosity in series [1] was determined as 7 mPa · s. Besides, in series [2], the P.I.I. is listed as 0.0.

Consider `C=CC(=O)OCCOc1ccccc1` [Phenoxyethyl acrylate], for which, in series [1], the Viscosity was found to be 3.3 mPa · s. Also, the P.I.I. in series [2] is 1.7.

`C=C(C)C(=O)OCCOCCOCCOCCOC(=O)C(=C)C` [Tetraethylene glycol dimethacrylate] had a Viscosity in series [1] of 14 mPa · s. Moreover, in series [2], the P.I.I. is on record as 0.5.

On to `C=C(C)C(=O)OCC(CC)(COC(=O)C(=C)C)COC(=O)C(=C)C` [Trimethylolpropane trimethacrylate], for which, in series [1], the Viscosity is listed as 42 mPa · s. Besides, the P.I.I. in series [2] is 0.8.

Turning to `C=CC(=O)OCC(C)OCC(C)OCC(C)OC(=O)C=C` (centres unmarked) [Tripropylene glycol diacrylate], the Viscosity in series [1] was found to be 12 mPa · s. Also, the P.I.I. in series [2] is on record as 1.6.

For Glycerin PO-modified triacrylate, in series [1], the Viscosity amounted to 75 mPa · s.

Turning to Polyethylene glycol #400 diacrylate, the Viscosity in series [1] is given as 58 mPa · s. For the same compound, the P.I.I. in series [2] is recorded as 0.4.

In the case of “Trimethylolpropane PO-modified triacrylate”, the Viscosity in series [1] was found to be 60 mPa · s. The P.I.I. in series [2] is reported as 0.1.

The compound Trimethylolpropane modified triacrylate returned a Viscosity in series [1] of 55 mPa · s. For the same compound, the P.I.I. in series [2] was 1.5.
